{
  "source": "patent US12583858B2",
  "about": "(Genentech, Inc., priority 2015, dated 2026)",
  "data": [
    {"target": "T1, TDO2 (Homo sapiens, UniProt P48775)", "T1 construct": "decreased levels of NFK in SW48 cells (high TDO expressing cells)", "T1 sequence (P48775 whole entry)": "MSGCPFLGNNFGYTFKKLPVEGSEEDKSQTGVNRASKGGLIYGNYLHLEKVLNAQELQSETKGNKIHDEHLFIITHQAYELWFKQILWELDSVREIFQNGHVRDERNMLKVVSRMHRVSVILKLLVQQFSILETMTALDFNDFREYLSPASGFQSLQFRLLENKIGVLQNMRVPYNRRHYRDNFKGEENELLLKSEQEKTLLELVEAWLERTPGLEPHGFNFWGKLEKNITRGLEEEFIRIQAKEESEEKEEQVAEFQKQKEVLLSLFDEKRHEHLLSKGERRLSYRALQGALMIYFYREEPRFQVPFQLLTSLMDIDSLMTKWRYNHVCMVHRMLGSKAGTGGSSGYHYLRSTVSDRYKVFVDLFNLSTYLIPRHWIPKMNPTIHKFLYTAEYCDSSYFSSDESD", "experiment": "TDO2 cell assay (NFK GreenScreen, SW48 cells)", "assay_type": "cell-based", "settings": "SW48 cells (high TDO expressing), 200 uM tryptophan, 24 hours; Table 3; read-out: TDO2 Cell Fluor EC50", "units": {"EC50": "nM"}, "values": [
      {"smiles": "OC1c2cncn2CC[C@H]1[C@H]1c2ccccc2-c2cncn21", "note": "(stereo in doubt) [Example 07c, (7S,8R)-7-((S)-5H-imidazo[5,1-a]isoindol-5-yl)-5,6,7,8-tetrahydroimidazo[1,5-a]pyridin-8-ol]", "EC50": 430},
      {"smiles": "OC1c2cncn2CC[C@@H]1[C@@H]1c2ccccc2-c2cncn21", "note": "(stereo in doubt) [Example 07d, (7R,8S)-7-((R)-5H-imidazo[5,1-a]isoindol-5-yl)-5,6,7,8-tetrahydroimidazo[1,5-a]pyridin-8-ol]", "EC50": "> 25000"},
      {"smiles": "CCS(=O)(=O)N1CC[C@H]([C@H]2c3ccccc3-c3cncn32)[C@@H](O)C1", "note": "(stereo in doubt) [Example 16d, (3R,4R)-1-(ethylsulfonyl)-4-((S)-5H-imidazo[5,1-a]isoindol-5-yl)piperidin-3-ol]", "EC50": "> 25000"},
      {"smiles": "NC(=O)c1ccc2c(c1)CC[C@H](C1c3ccccc3-c3cncn31)[C@H]2O", "note": "(stereo in doubt) [Example 60c, (5R,6R)-5-hydroxy-6-((S)-5H-imidazo[5,1-a]isoindol-5-yl)-5,6,7,8-tetrahydronaphthalene-2-carboxamide]", "EC50": 2400},
      {"smiles": "N#Cc1ccc2c(c1)[C@@H](O)[C@@H]([C@H]1c3ccccc3-c3cncn31)CC2", "note": "(stereo in doubt) [Example 113d, (7R,8S)-8-hydroxy-7-((S)-5H-imidazo[5,1-a]isoindol-5-yl)-5,6,7,8-tetrahydronaphthalene-2-carbonitrile]", "EC50": 12000},
      {"smiles": "N#Cc1ccc2c(c1)[C@H](O)[C@H]([C@@H]1c3ccccc3-c3cncn31)CC2", "note": "(stereo in doubt) [Example 113e, (7S,8R)-8-hydroxy-7-((R)-5H-imidazo[5,1-a]isoindol-5-yl)-5,6,7,8-tetrahydronaphthalene-2-carbonitrile]", "EC50": 1300},
      {"smiles": "OC1c2cccn2CC[C@H]1C1c2ccccc2-c2cncn21", "note": "(stereo in doubt) [Example 136f, (7S,8S)-7-((R)-5H-imidazo[5,1-a]isoindol-5-yl)-5,6,7,8-tetrahydroindolizin-8-ol]", "EC50": 360},
      {"smiles": "O[C@@H]1CC[C@@H]1[C@@H]1c2ccccc2-c2cncn21", "note": "[Example 01a, (1R,2R)-2-((R)-5H-imidazo[5,1-a]isoindol-5-yl)cyclobutan-1-ol]", "EC50": 14000},
      {"smiles": "O[C@H]1CC[C@H]1[C@H]1c2ccccc2-c2cncn21", "note": "[Example 01b, (1S,2S)-2-((S)-5H-imidazo[5,1-a]isoindol-5-yl)cyclobutan-1-ol]", "EC50": 150},
      {"smiles": "O[C@H]1CC[C@@H]1[C@@H]1c2ccccc2-c2cncn21", "note": "[Example 01c, (1S,2R)-2-((R)-5H-imidazo[5,1-a]isoindol-5-yl)cyclobutan-1-ol]", "EC50": "> 25000"},
      {"smiles": "O[C@H]1CC[C@@H]1[C@H]1c2ccccc2-c2cncn21", "note": "[Example 01e, (1S,2R)-2-((S)-5H-imidazo[5,1-a]isoindol-5-yl)cyclobutan-1-ol]", "EC50": 1100},
      {"smiles": "O[C@@H]1CCC[C@@H]1[C@@H]1c2ccccc2-c2cncn21", "note": "[Example 02a, (1R,2R)-2-((R)-5H-imidazo[5,1-a]isoindol-5-yl)cyclopentan-1-ol]", "EC50": 12000},
      {"smiles": "O[C@H]1CCC[C@H]1[C@H]1c2ccccc2-c2cncn21", "note": "[Example 02b, (1S,2S)-2-((S)-5H-imidazo[5,1-a]isoindol-5-yl)cyclopentan-1-ol]", "EC50": 120},
      {"smiles": "O[C@@H]1CCC[C@@H]1[C@H]1c2ccccc2-c2cncn21", "note": "[Example 02c, (1R,2R)-2-((S)-5H-imidazo[5,1-a]isoindol-5-yl)cyclopentan-1-ol]", "EC50": 300},
      {"smiles": "O[C@H]1CCC[C@H]1[C@@H]1c2ccccc2-c2cncn21", "note": "[Example 02d, (1S,2S)-2-((R)-5H-imidazo[5,1-a]isoindol-5-yl)cyclopentan-1-ol]", "EC50": 14000},
      {"smiles": "O[C@H]1CCCC[C@H]1[C@H]1c2ccccc2-c2cncn21", "note": "[Example 03a, (1S,2S)-2-((S)-5H-imidazo[5,1-a]isoindol-5-yl)cyclohexan-1-ol]", "EC50": 77},
      {"smiles": "O[C@@H]1CCCC[C@H]1[C@H]1c2ccccc2-c2cncn21", "note": "[Example 03b, (1R,2S)-2-((S)-5H-imidazo[5,1-a]isoindol-5-yl)cyclohexan-1-ol]", "EC50": 83},
      {"smiles": "O[C@H]1CCCC[C@@H]1[C@@H]1c2ccccc2-c2cncn21", "note": "[Example 03g, (1S,2R)-2-((R)-5H-imidazo[5,1-a]isoindol-5-yl)cyclohexan-1-ol]", "EC50": 7600},
      {"smiles": "O[C@@H]1CCCC[C@@H]1[C@@H]1c2ccccc2-c2cncn21", "note": "[Example 03h, (1R,2R)-2-((R)-5H-imidazo[5,1-a]isoindol-5-yl)cyclohexan-1-ol]", "EC50": 13000},
      {"smiles": "O[C@H]1CCOC[C@@H]1[C@@H]1c2ccccc2-c2cncn21", "note": "[Example 05a, (3S,4S)-3-((R)-5H-imidazo[5,1-a]isoindol-5-yl)-tetrahydro-2H-pyran-4-ol]", "EC50": 23000},
      {"smiles": "O[C@@H]1CCOC[C@H]1[C@H]1c2ccccc2-c2cncn21", "note": "[Example 05b, (3R,4R)-3-((S)-5H-imidazo[5,1-a]isoindol-5-yl)-tetrahydro-2H-pyran-4-ol]", "EC50": 210},
      {"smiles": "O[C@@H]1CCOC[C@H]1[C@@H]1c2ccccc2-c2cncn21", "note": "[Example 05c, (3R,4R)-3-((R)-5H-imidazo[5,1-a]isoindol-5-yl)-tetrahydro-2H-pyran-4-ol]", "EC50": "> 25000"},
      {"smiles": "O[C@H]1CCOC[C@@H]1[C@H]1c2ccccc2-c2cncn21", "note": "[Example 05d, (3S,4S)-3-((S)-5H-imidazo[5,1-a]isoindol-5-yl)-tetrahydro-2H-pyran-4-ol]", "EC50": 1000},
      {"smiles": "O[C@@H]1COCC[C@@H]1[C@@H]1c2ccccc2-c2cncn21", "note": "[Example 06e, (3S,4R)-4-((R)-5H-imidazo[5,1-a]isoindol-5-yl)tetrahydro-2H-pyran-3-ol]", "EC50": "> 25000"},
      {"smiles": "O[C@H]1COCC[C@H]1[C@H]1c2ccccc2-c2cncn21", "note": "[Example 06f, (3R,4S)-4-((S)-5H-imidazo[5,1-a]isoindol-5-yl)tetrahydro-2H-pyran-3-ol]", "EC50": 900},
      {"smiles": "O[C@H]1c2cncn2CC[C@@H]1[C@@H]1c2ccccc2-c2cncn21", "note": "[Example 07g, (7R,8R)-7-((R)-5H-imidazo[5,1-a]isoindol-5-yl)-5,6,7,8-tetrahydroimidazo[1,5-a]pyridin-8-ol]", "EC50": "> 25000"},
      {"smiles": "O[C@@H]1c2ccncc2CC[C@H]1[C@H]1c2ccccc2-c2cncn21", "note": "[Example 08a, (5S,6S)-6-((S)-5H-imidazo[5,1-a]isoindol-5-yl)-5,6,7,8-tetrahydroisoquinolin-5-ol]", "EC50": 48},
      {"smiles": "CC(C)(C)OC(=O)N1CC[C@@H](O)[C@H]([C@H]2c3ccccc3-c3cncn32)C1", "note": "[Example 11a, (3S,4R)-tert-butyl 4-hydroxy-3-((S)-5H-imidazo[5,1-a]isoindol-5-yl)piperidine-1-carboxylate]", "EC50": 15000},
      {"smiles": "CC(C)(C)OC(=O)N1CC[C@H](O)[C@@H]([C@@H]2c3ccccc3-c3cncn32)C1", "note": "[Example 11b, (3R,4S)-tert-butyl 4-hydroxy-3-((R)-5H-imidazo[5,1-a]isoindol-5-yl)piperidine-1-carboxylate]", "EC50": "> 25000"},
      {"smiles": "CCS(=O)(=O)N1CC[C@H]([C@@H]2c3ccccc3-c3cncn32)[C@@H](O)C1", "note": "[Example 16b, (3R,4R)-1-(ethylsulfonyl)-4-((R)-5H-imidazo[5,1-a]isoindol-5-yl)piperidin-3-ol]", "EC50": "> 25000"},
      {"smiles": "CCS(=O)(=O)N1CC[C@H]([C@H]2c3ccccc3-c3cncn32)[C@@H](O)C1", "note": "[Example 16c, (3R,4R)-1-(ethylsulfonyl)-4-((S)-5H-imidazo[5,1-a]isoindol-5-yl)piperidin-3-ol]", "EC50": 5700}
    ]}
  ]
}
